# According to patent US11312754B2, “Sunflower seed protein-derived peptides” (ACCESS BUSINESS GROUP INTERNATIONAL LLC, priority 2019, dated 2022):
# Where a SMILES comes first, the peptide text is derived from it. Where no end group is shown, it is not given here.
# Tests used:
# [1] = target: T1, human recombinant renin (Homo sapiens, UniProt P00797); experiment: Renin inhibition assay (Renin Inhibitor Screening Assay Kit); assay type: biochemical; conditions: individual isolated peptides, 1 mg/mL; read-out: % Inhibition ± SD of renin activity
# T1 construct: purchased
# T1 sequence (P00797 67-406): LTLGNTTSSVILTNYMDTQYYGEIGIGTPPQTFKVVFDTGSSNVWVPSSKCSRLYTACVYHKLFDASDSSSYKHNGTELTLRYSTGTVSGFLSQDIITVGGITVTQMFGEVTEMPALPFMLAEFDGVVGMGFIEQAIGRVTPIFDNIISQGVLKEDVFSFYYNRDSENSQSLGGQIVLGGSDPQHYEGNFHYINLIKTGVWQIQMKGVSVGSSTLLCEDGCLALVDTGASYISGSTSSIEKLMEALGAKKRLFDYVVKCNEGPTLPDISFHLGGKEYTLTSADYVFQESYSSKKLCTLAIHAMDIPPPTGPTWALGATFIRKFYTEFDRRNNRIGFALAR
# Method: In vitro inhibitory activity of human recombinant renin is conducted using a Renin Inhibitor Screening Assay Kit. Samples (crude hydrolysate and the protein hydrolysate composition of Fraction 7 of Example 1) are diluted in Tris-HCl buffer (50 mM, pH 8.0, containing 100 mM NaCl) to a final concentration 0.5 mg/mL, and pre-warmed to 37° C. The reaction is initiated by adding renin (10 μL), shaking for 10 s to mix, and incubating at 37° C. for 15 min. Fluorescence intensity (FI) is then recorded at an excitation wavelength of 340 nm and an emission wavelength of 490 nm using a fluorometric microplate reader. The results of the assay are set forth in Table 3 below, expressed as percent inhibition. The procedure set forth above for Examples 18 & 19 is repeated at 1 mg/mL concentrations using samples containing one of the isolated peptides 1-4 of Fraction 7 of Example 1.
# [2] = Hydroxyl radical scavenging activity (HRSA) assay; conditions: individual isolated peptides
# Method: The hydroxyl radical scavenging activity of crude hydrolysate and the protein hydrolysate composition of Fraction 7 is determined by dissolving samples (crude hydrolysate and the protein hydrolysate composition of Fraction 7 of Example 1) and 1,10-phenanthroline in 0.1 M sodium phosphate buffer (pH 7.4). FeSO4 (3 mM) and 0.01% hydrogen peroxide are separately dissolved in distilled water. An aliquot (50 μL) of samples (final assay concentration of 0.5 mg/mL) or buffer (control) is first added to a clear, flat bottom 96-well plate followed by additions of 50 μL of 1,10-phenanthroline and 50 μL of FeSO4. To initiate reaction in the wells, 50 μL of hydrogen peroxide (H2O2) solution is added to the mixture, which is then covered and incubated at 37° C. for 1 h with shaking. Absorbance is measured at 536 nm every 10 min for a period of 1 h.
# The procedure set forth above for Examples 12 & 13 is repeated using samples containing one of the isolated peptides 1-4 of Fraction 7 of Example 1.
# [3] = target: ACE (Homo sapiens, UniProt P12821); experiment: ACE inhibition assay (FAPGG substrate); assay type: biochemical; conditions: individual isolated peptides
# Method: The ability of sample to inhibit in vitro activity of ACE is determined by mixing 1 mL of FAPGG (0.5 mM, dissolved in buffer [50 mM Tris-HCl buffer containing 0.3 M NaCl, pH 7.5]) with 20 μL ACE (1 U/mL, final activity of 20 mU) and 200 μL sample (crude hydrolysate and the protein hydrolysate composition of Fraction 7 of Example 1, each dissolved in buffer to 1 mg/mL). The rate of decrease in absorbance at 345 nm is recorded for 2 min at room temperature. The results of the assay are set forth in Table 3 below, expressed as percent inhibition.
# The procedure set forth above for Examples 16 & 17 is repeated using samples containing one of the isolated peptides 1-4 of Fraction 7 of Example 1.
# [4] = DPPH radical scavenging assay; conditions: individual isolated peptides
# Method: The scavenging activity of crude hydrolysate and the protein hydrolysate composition of Fraction 7 against DPPH is determined by first dissolving samples (crude hydrolysate and the protein hydrolysate composition of Fraction 7 of Example 1) in 0.1 M sodium phosphate buffer, pH 7.0 containing 1% (w/v) Triton X-100. DPPH is dissolved in methanol to a final concentration of 100 μM, and mixed with the samples in the 96-well plate to a final assay concentration of 1 mg/mL. The samples are then incubated at room temperature in the dark for 30 min, and the absorbance read at 517 nm.
# The procedure set forth about for Examples 10 & 11 is repeated using samples containing one of the isolated peptides 1-4 of Fraction 7 of Example 1.
# ACE, sequence (P12821 30-1306, species assumed): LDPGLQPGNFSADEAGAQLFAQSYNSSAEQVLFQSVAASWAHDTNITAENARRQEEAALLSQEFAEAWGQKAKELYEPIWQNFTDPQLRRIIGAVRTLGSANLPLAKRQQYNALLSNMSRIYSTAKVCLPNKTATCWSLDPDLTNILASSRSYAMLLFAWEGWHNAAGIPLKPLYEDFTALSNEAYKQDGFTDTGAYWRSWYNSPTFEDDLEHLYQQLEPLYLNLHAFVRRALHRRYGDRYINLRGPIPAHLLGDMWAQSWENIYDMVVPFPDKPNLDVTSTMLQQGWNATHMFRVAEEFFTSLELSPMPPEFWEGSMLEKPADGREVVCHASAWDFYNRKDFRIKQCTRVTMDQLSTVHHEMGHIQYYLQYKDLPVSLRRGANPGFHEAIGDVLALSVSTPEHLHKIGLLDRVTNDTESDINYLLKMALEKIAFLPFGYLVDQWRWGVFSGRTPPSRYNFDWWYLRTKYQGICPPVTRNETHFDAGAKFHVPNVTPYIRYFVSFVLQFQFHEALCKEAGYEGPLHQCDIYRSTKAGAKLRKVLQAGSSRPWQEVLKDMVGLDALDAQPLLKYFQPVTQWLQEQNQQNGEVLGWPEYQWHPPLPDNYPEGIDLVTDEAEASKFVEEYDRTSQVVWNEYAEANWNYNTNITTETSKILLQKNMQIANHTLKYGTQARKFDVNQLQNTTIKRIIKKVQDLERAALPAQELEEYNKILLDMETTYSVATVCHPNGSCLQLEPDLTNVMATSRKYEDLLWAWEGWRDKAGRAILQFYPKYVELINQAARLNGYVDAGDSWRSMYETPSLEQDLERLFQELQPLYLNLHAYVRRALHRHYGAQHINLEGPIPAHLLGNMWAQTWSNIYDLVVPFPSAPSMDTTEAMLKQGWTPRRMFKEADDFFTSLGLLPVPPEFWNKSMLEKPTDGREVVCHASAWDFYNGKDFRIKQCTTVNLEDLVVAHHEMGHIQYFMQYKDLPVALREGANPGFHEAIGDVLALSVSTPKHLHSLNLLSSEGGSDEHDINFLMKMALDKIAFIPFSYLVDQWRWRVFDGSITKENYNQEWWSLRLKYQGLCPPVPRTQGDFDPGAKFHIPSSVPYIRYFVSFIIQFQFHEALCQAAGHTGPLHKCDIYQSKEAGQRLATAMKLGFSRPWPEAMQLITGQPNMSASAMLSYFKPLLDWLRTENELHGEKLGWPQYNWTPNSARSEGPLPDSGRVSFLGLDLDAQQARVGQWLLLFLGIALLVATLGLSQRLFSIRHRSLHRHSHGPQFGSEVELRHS
inhibition at 1000 µg/mL [1],IC50 hydrogen (hydroxyl) radical scavenging [2],IC50 [3],IC50 DPPH radical scavenging [4],Compound
-54.5 ± 1.48%,1900 ± 80 µg/mL,961 µM,28340 ± 380 µg/mL,"SGRDP [Peptide 2, Ser-Gly-Arg-Asp-Pro]"
107 ± 17.6%,1840 ± 10 µg/mL,557 µM,4260 ± 30 µg/mL,"TGSYTEGWS [Peptide 4, Thr-Gly-Ser-Tyr-Thr-Glu-Gly-Trp-Ser]"
-46.4 ± 1.56%,2500 ± 30 µg/mL,35.7 µM,4690 ± 50 µg/mL,"MVWGP [Peptide 3, Met-Val-Trp-Gly-Pro]"

Compound,inhibition at 1000 µg/mL [1],IC50 hydrogen (hydroxyl) radical scavenging [2],IC50 [3],IC50 DPPH radical scavenging [4]
"CC(C)[C@H](NC(=O)[C@H](Cc1ccccc1)NC(=O)[C@@H](N)Cc1ccc(O)cc1)C(=O)N1CCC[C@H]1C(=O)O [Peptide 1, Tyr-Phe-Val-Pro] (H-YFVP-OH; N-terminus and C-terminus assumed)",-40.5 ± 6.23%,1930 ± 20 µg/mL,477 µM,3850 ± 130 µg/mL
